# Experimental data from US20220389058A1, “PEPTIDES AND COMPOSITIONS FOR USE IN COSMETICS AND MEDICINE” (LIPOTRUE, S.L., priority 2019, published 2022).
# Tests used:
# IL-33 = assay: Production of protein IL-33 in HDFa cells stimulated with IFNγ, ELISA (Example 8); assay type: cell-based, human; conditions: HDFa cells exposed to IFNγ (300 U/mL), 0.005, 0.01 and 0.05 mg/mL, 24 hours, cell lysates
# Protocol: Adult human dermal fibroblasts (HDFa) were seeded on 24-well plate at concentration of 1×10^5 cells/mL in their corresponding growth media and incubated for 24 hours in standard culture conditions; at that time, three different concentrations (0.005, 0.01 and 0.05 mg/mL) of the Ac-SEQ ID NO: 1-NH2 were added in presence of IL-33-induction stimulus (IFNγ, 300 U/mL). Cells without stimuli were also included as basal group. Positive control group was cells treated with 300 U/mL of IFNγ, but without being treated with a peptide of the present invention. 24 hours later, conditioned media was collected, and cells processed for protein extraction.
# IL-33 levels in the cell lysates were analysed with a commercial ELISA kit (DuoSet ELISA. R&D). Absorbances were measured with an automated spectrophotometer plate-reader.
# HDFa cells [1] = assay: Expression of genes related with collagen production and extracellular matrix, RT-qPCR in HDFa (Example 10); assay type: cell-based, Human; conditions: 0.01 mg/mL
# Protocol: (§1) A stock solution of the peptide was prepared in water at 1 mg/mL. Working solution was freshly prepared at the specified concentration from stock solution in the corresponding supplemented medium.
# RNA (ribonucleic acid) extraction and RT-qPCR (reverse transcription quantitative polymerase chain reaction) were performed. Briefly, HDFa cells were seeded in duplicate (n=2) in 6-well plates at a density of 4×10^5 cells/well and maintained at standard culture conditions (106 Medium supplemented with 1% (v/v) LSGS; 37° C., 95% room humidity, 5% CO2) for 24 hours. Then, cells were treated with peptide Ac-SEQ ID NO: 1-NH2 at the concentration of 0.01 mg/mL for 24 and 48 hours. Untreated cells were used as basal or negative control.
# (§2) Cells were finally lysed, and replicates were pooled together for RNA extraction using Qiagen RNeasy Mini kit following manufacturer's instructions. Purified RNAs were used to generate the corresponding cDNAs (complementary deoxyribonucleic acids) by reverse transcription using a commercial kit High capacity cDNA reverse transcription kit (Applied Biosystems) which served as templates for amplification. RT-qPCR was performed with the panel of appropriate TaqMan assay probes for genes shown in table 5 (plus GAPDH—Glyceraldehyde 3-phosphate dehydrogenase—that was used as housekeeping gene) and 2×gene expression Master Mix using StepOne plus Real-Time PCR instrument. Amplification included 40 cycles of: 15 seconds at 95° C. (denaturation) and 1 minute at 60° C. (Annealing and extension) (Arya, M., Shergill, I. S., Williamson, M., Gommersall, L., Arya, N., Patel, H. R. (2005) Basic principles of real-time quantitative PCR. Expert Rev. Mol. Diagn.; 5(2):209-19; and Jozefczuk, J. and Adjaye, J. (2011) Quantitative real-time PCR-based analysis of gene expression. Methods Enzymol. 500; 99-109).
# (§3) The obtained data was analysed using the ΔΔCt method, which provides the target gene expression values as fold changes in the treated sample compared with an untreated basal sample. Both samples were normalized with the relative expression of a housekeeping gene GAPDH (Glyceraldehyde 3-phosphate dehydrogenase).
# HDFa cells [2] = assay: Genes related with response to sleep deprivation, RT-qPCR in HDFa (Example 16); assay type: cell-based, Human; conditions: 0.01 mg/ml, 24 hours
# Protocol: as §1
# (§4) RNA (ribonucleic acid) extraction and RT-qPCR (reverse transcription quantitative polymerase chain reaction) were performed. […]
# (§5) Cells were finally lysed, and replicates were pooled together for RNA extraction using Qiagen RNeasy Mini kit following manufacturer's instructions. […] (Annealing and extension) (Arya, M., Shergill, I. S., Williamson, M., Gommersall, L., Arya, N., Patel, H. R. (2005) Basic principles of real-time quantitative PCR. Expert Rev. Mol. Diagn.; 5(2):209-19; and Jozefczuk, J. and Adjaye, J. (2011) Quantitative real-time PCR-based analysis of gene expression. Methods Enzymol. 500; 99-109).
# (§6) The obtained data was analysed using the ΔΔCt method, which provides the target gene expression values as fold changes in the treated sample compared with an untreated basal sample. […]
# HEKa cells = assay: Genes related with response to sleep deprivation, RT-qPCR in HEKa (Example 16); assay type: cell-based, Human; conditions: 0.01 mg/ml, 24 hours
# Protocol: as §1
# RNA (ribonucleic acid) extraction and RT-qPCR (reverse transcription quantitative polymerase chain reaction) were performed. Briefly, HEKa, HDFa or HUVEC cells were seeded in duplicate (n=2) in 6-well plates at a density of 4×10^5 cells/well (2×10^5 cells/well for HUVEC cells) and maintained at standard culture conditions (106 Medium supplemented with 1% (v/v) LSGS for HDFa cells; Medium Epilife supplemented with 1% (v/v) EDGS and 1% (v/v) penicillin/streptomycin for HEKa cells; Endothelial Cell Growth Medium for HUVEC cells; 37° C., 95% room humidity, 5% CO2) for 24 hours.
# Then, cells were treated with peptide Ac-SEQ ID NO: 1-NH2 at the concentration of 0.01 mg/mL for 24 hours. Untreated cells were used as basal or negative control.
# as §2, with “table 10” for “table 5”
# as §3
# HUVECs = assay: Genes related with response to sleep deprivation, RT-qPCR in HUVEC (Example 16); assay type: cell-based, Human; conditions: 0.01 mg/ml, 24 hours
# Protocol: as §1, §4, §5, §6
substance,measurement,setting,value
Ac-Arg-Arg-Gln-Met-Arg-Glu-NH2 (Ac-RRQMRE-NH2) [Ac-SEQ ID NO: 1-NH2],IL-33 protein levels,IL-33,reduces the IL-33 protein levels produced by HDFa cells exposed to IFNγ (300 U/mL) in a dose-dependent manner
same,COL3A1 Fold change between treated cells and basal control,HDFa cells [1]; 24 hours,1.32 Fold change
same,LAMA1 Fold change between treated cells and basal control,HDFa cells [1]; 24 hours,1.16 Fold change
same,TIMP2 Fold change between treated cells and basal control,HDFa cells [1]; 24 hours,1.35 Fold change
same,MMP1 Fold change between treated cells and basal control,HDFa cells [1]; 48 hours,−1.30 Fold change
same,MMP3 Fold change between treated cells and basal control,HDFa cells [1]; 48 hours,−1.69 Fold change
same,IL1RL1 Fold change between treated cells and basal control,HDFa cells [2],−1.26 Fold change
same,CXCL8 Fold change between treated cells and basal control,HEKa cells,−1.33 Fold change
same,MTNR1A Fold change between treated cells and basal control,HEKa cells,2.11 Fold change
same,SIGIRR Fold change between treated cells and basal control,HEKa cells,1.27 Fold change
same,SLC2A1 Fold change between treated cells and basal control,HEKa cells,−1.21 Fold change
same,NFKB1 Fold change between treated cells and basal control,HUVECs,−1.24 Fold change
